Data: the NIST ThermoML archive (doi:10.1021/je034002l)

Columns and labels:
[1] = xn = mol fraction of the nth substance listed; conditions: 101.3 kPa, Liquid, x2 = 0
[2] = 101.3 kPa, Liquid

CCCCCC [hexane] + CCCCCCCl
[1]
Conditions	mass density [kg/m3]	viscosity [mPa·s]
293.15 K	659.44	0.3163
298.15 K	654.93	0.3036
303.15 K	650.36	0.2914
308.15 K	645.74	0.2797
313.15 K	641.08	0.2685
318.15 K	636.37	0.258
323.15 K	631.61	0.2482
328.15 K	626.81	0.2391
333.15 K	621.95	0.2308

CCCCCC [hexane]
[2]
Conditions	mass density [kg/m3]	viscosity [mPa·s]
293.15 K	659.44	0.3163
298.15 K	654.93	0.3036
303.15 K	650.36	0.2914
308.15 K	645.74	0.2797
313.15 K	641.08	0.2685
318.15 K	636.37	0.258
323.15 K	631.61	0.2482
328.15 K	626.81	0.2391
333.15 K	621.95	0.2308

CCCCCCCl [1-chlorohexane]
[2]
Conditions	mass density [kg/m3]	viscosity [mPa·s]
293.15 K	878.52	0.7704
298.15 K	873.75	0.7173
303.15 K	868.98	0.6702
308.15 K	864.21	0.6283
313.15 K	859.44	0.591
318.15 K	854.67	0.558
323.15 K	849.9	0.5285
328.15 K	845.12	0.5019
333.15 K	840.35	0.4778
